# Positions of bridges follow the written chain, without caps; N, C: chain ends. No end group written: not given here.
# What was measured:
# [1] = Burn treatment test: body weight and abnormal syndrome; format: in vivo, SD (Sprague-Dawley) rats; conditions: for BODY WEIGHTS: skin
# Experimental: (§1) The experiment was carried out with 55 male SD (Sprague-Dawley) rats that were divided into […] groups: 5 rats for normal group (1 group, G1), 9-10 rats for negative control (1 group, G2), 30 rats for experimental group (3 groups, 10 rats in each group, G3, G4, G5), and 9-10 rats for positive control (1 group, G6). In the remaining groups except normal group, burned male SD rats was used for experiment. After SD rats were anesthesized, 2-degree burns, 2 cm in diameter, were induced on the SD rats using an aluminum electric soldering iron.
# (§2) Test substance HU022 (SEQ ID NO:1) (G3, G4, G5), normal saline solution (G2) and Fiblast (G6) were applied to the skin of the burned male SD rats repeatedly once a day seven times a week for 7 days. Fiblast was applied to control group (G6) in 10 μg/dose/head, and the experimental group was divided into 3 groups and test substance was applied to each group in 3.3 μg/dose/head (G3), 10 μg/dose/head (G4), and 30 μg/dose/head (G5).
# (§3) With the measurement results, parametric comparison determined significance via Student's t-test and One-Way ANOVA, and significance testing relative to negative control was conducted. Furthermore, with the histopathology test results of burns, Kruskal-Wallis' H-test was conducted, and when significance between groups was identified, comparison between groups was performed through Mann-Whitney U-test. The computation program for statistics was SPSS 10.1 K. P<0.05 was determined to be statistically significant.
# [2] = tested on: 2-degree burns of male SD rats; assay: Burn treatment test: histopathology (H&E) of burn site; format: in vivo, SD (Sprague-Dawley) rats; conditions: score 0-4, 14th day after burn
# Experimental: as §1, §2
# On the 14th day after burn, the burn site on the back was scraped from the dermis and fixed in 10% neutrally buffered formalin solution, and histopathology test was conducted through H&E staining.
# as §3
# [3] = tested on: glaucoma animal model having microbead-induced elevated intraocular pressure; assay: Glaucoma test: intraocular pressure; format: in vivo, mouse; conditions: 20 ug/ml applied to eye once daily
# Experimental: For control drug, Taflotan eye drops (Santen Pharmaceutical Co., Ltd.) were used, and for test drug, Taflotan eye drops+HU024 (SEQ ID NO:2) (sample 1), HU024 (SEQ ID NO:2) (sample 2), HU025 (SEQ ID NO:3) (sample 3), HU026 (SEQ ID NO:4) (sample 4), and HU027 (SEQ ID NO:5) (sample 5) were used, and testing was performed on glaucoma animal model having microbead-induced elevated intraocular pressure. In experimental animal model, Rompun solution for injection and zoletil were mixed and used to put the experimental animal under anesthesia, topical anesthetic Alcaine was applied to eye, 1×106 microbead/mL 1 μL was injected into anterior chamber using micro glass needle to induce an increase in intraocular pressure for 2 weeks (IOVS 2011 Vol. 52 36-).
# The control drug and 5 samples were provided to the experimental animal having the elevated intraocular pressure for 2 weeks, 5 samples were applied to eye once daily, comparative verification of efficacy was performed, and intraocular pressure reduction and optic nerve cell in the retina was observed through administration for 4 weeks.
# The intraocular pressure was measured using a contact-type intraocular pressure meter Tono lab's tonometer TV02 model. […] In 5-7 days after fluorescent probe injection, the eye was enucleated and fixed in 4% paraformaldehyde at room temperature for 4 hours. The retina was separated from choroid of the fixed eye and mounted on a slide. In each experimental group slide, optic nerve cell expressing fluorescence was detected using fluorescence microscope, images were taken at a magnification of ×40 and ×200, and data was collected.
substance,measurement,setting,value
"HU022: polypeptide consisting of 452nd-509th amino acids of ADAM 15 (GenBank AAH14566.1), 58 amino acids; commercial product (EYEGENE Inc.)",BODY WEIGHTS,"[1]; 3.3 μg/head/day, Day 1",261.24 ± 10.05 g
same,BODY WEIGHTS,"[1]; 3.3 μg/head/day, Day 8",269.41 ± 17.57 g
same,BODY WEIGHTS,"[1]; 3.3 μg/head/day, Day 15",300.31 ± 20.36 g
same,BODY WEIGHTS,"[1]; 10 μg/head/day, Day 1",260.59 ± 9.27 g
same,BODY WEIGHTS,"[1]; 10 μg/head/day, Day 8",267.86 ± 5.20 g
same,BODY WEIGHTS,"[1]; 10 μg/head/day, Day 15",296.55 ± 8.86 g
same,BODY WEIGHTS,"[1]; 30 μg/head/day, Day 1",257.94 ± 9.23 g
same,BODY WEIGHTS,"[1]; 30 μg/head/day, Day 8",259.49 ± 15.34 g
same,BODY WEIGHTS,"[1]; 30 μg/head/day, Day 15",284.87 ± 17.06 g
same,abnormal syndrome after application,"[1]; burned male SD rats, skin application",any abnormal syndrome was not observed
same,Epidermal regeneration,[2]; 3.3 μg/head/day,0.1 ± 0.0 points
same,Eschar,[2]; 3.3 μg/head/day,4.0 ± 0.0 points
same,Fibroplasia (connective tissue growth),[2]; 3.3 μg/head/day,3.1 ± 0.3 points
same,Infiltration of Inflammatory cells,[2]; 3.3 μg/head/day,3.0 ± 0.0 points
same,Pilosebaceous (skin appendage regeneration),[2]; 3.3 μg/head/day,0.1 ± 0.3 points
same,Epidermal regeneration,[2]; 10 μg/head/day,0.6 ± 0.5 points
same,Eschar,[2]; 10 μg/head/day,3.2 ± 0.6 points
same,Fibroplasia (connective tissue growth),[2]; 10 μg/head/day,3.0 ± 0.5 points
same,Infiltration of Inflammatory cells,[2]; 10 μg/head/day,3.0 ± 0.0 points
same,Pilosebaceous (skin appendage regeneration),[2]; 10 μg/head/day,0.9 ± 1.1 points
same,Epidermal regeneration,[2]; 30 μg/head/day,0.6 ± 0.7 points
same,Eschar,[2]; 30 μg/head/day,2.7 ± 0.7 points
same,Fibroplasia (connective tissue growth),[2]; 30 μg/head/day,3.3 ± 0.5 points
same,Infiltration of Inflammatory cells,[2]; 30 μg/head/day,3.0 ± 0.0 points
same,Pilosebaceous (skin appendage regeneration),[2]; 30 μg/head/day,1.1 ± 1.0 points
HU024 (RPTRGDCDLPEFCPG; disulfide 7-13; listed as Homo sapiens),intraocular pressure change,[3],A reduction in intraocular pressure was observed
